How the values were obtained:
Format in all cases: in vivo, rat
[1] = tested on: arginine stimulated insulin secretion; assay: arginine stimulated insulin secretion in anaesthetized fasted rats (plasma IRI); details: for ΔIRI, mean incremental change of IRI from basal: infused with arginine, 30 min, mean ± SEM
Description: (§1) The in vivo activity of the peptide of formula I is established by subjecting the peptide of formula I, in which X is (CH2)2 as a representative peptide of this invention, to the following standard test procedures.
(§2) Male Sprague Dawley rats (200±10 gm) body weight are used throughout these studies. They are maintained on an ad libitum diet of Purina Lab Chow and tap water until 24 hr before the studies are carried out. In the 24 hr period prior to use, the animals are fasted, but have unlimited access to tap water. All studies are conducted on sodium pentobarbital, sold under the trademark Nembutal, (Abbott Labs, Montreal), 60 mg/kg, ip, anaesthetized rats.
(§3) In studies where both insulin and glucagon secretion are investigated, arginine (arginine-HCl in 0.9% aqueous sodium chloride, pH 7.4, 200 mg/100 gm rat, Nutritional Biochemicals, Cleveland) is infused into an exposed jugular vein (2.0 ml/30 min).
(§4) The peptide of formula I or somatostatin at various concentrations is infused simultaneously with the arginine or glucose stimulus, with the aid of a butterfly infusion set (23 guage) into the test animals. The effect of the vehicle on the release of the hormones is determined by infusing the saline diluent into selected rats.
(§5) The blood samples are discharged into chilled (4° C.) glass test tubes, containing aprotinin, sold under the trademark Trasylol, (Boehringer Ingelheim, Montreal), 500 KIU/ml whole blood, and plasma samples were collected after centrifugation (4° C., 3000 rpm for 30 min). The plasma samples were stored at -20° until assayed for immuno reactive glucagon (IRG) using antiserum 30 K and for immuno reactive insulin (IRI) by the methods described by W. Lippmann and M. Kobric, Horm. Metab. Res., 10, 280 (1978).
(§6) All results are expressed as the mean ±SEM of the response. Insulin and glucagon responses obtained in the arginine treated groups are derived by subtracting the basal hormone level from the level at 30 min, and are expressed in Tables I, II and III as ΔIRG (pg/ml) and ΔIRI/(μU/ml), for glucagon and insulin, respectively. Insulin results obtained from the glucose treated animals are in absolute hormone level at the termination of the infusion.
(§7) Wilcoxon's two sample test for unpaired observations, as described in "Statistical Methods", G. W. Snedecor and W. G. Cochran, ed., sixth edition, the Iowa State University Press, Ames, Iowa, 1973, pp 130 and 131, is used to determine the significance of the peptide+arginine or peptide+glucose versus the responses due to arginine or glucose alone. In selected instances, parallel dose-response line assay by analysis of variance, as described in "Statistical Method in Biological Assay", D. J. Finney, ed., second edition, Hafner Publishing Company, New York, 1964, is used to determine the relative potency of the 2 peptides in the bioassays. A p≤0.05 is deemed to be significant.

[2] = tested on: glucose stimulated insulin secretion; assay: glucose stimulated insulin secretion in anaesthetized fasted rats (plasma IRI); details: for IRI/ml, level observed at 30 min: absolute level, mean ± SEM
Description: as §1, §2
In studies where only insulin secretion is stimulated, glucose in 0.9% aqueous sodium chloride (British Drug House, Poole, England) is infused into an exposed jugular vein (100 mg/100 gm, in a volume of 2.0 ml for 30 min).
as §4, §5, §6, §7

[3] = tested on: arginine stimulated glucagon secretion; assay: arginine stimulated glucagon secretion in anaesthetized fasted rats (plasma IRG); details: for ΔIRG, mean incremental change of plasma IRG from level at 0 min to level at 30 min: mean ± SEM
Description: as §1, §2, §3, §4, §5, §6, §7

C[C@H](N)C(=O)NCC(=O)N[C@H]1CSSC[C@@H](C(=O)O)NC(=O)[C@H](CO)NC(=O)[C@H]([C@@H](C)O)NC(=O)[C@H](Cc2ccccc2)NC(=O)[C@H]([C@@H](C)O)NC(=O)[C@H](CCCCN)NC(=O)[C@H](Cc2c[nH]c3ccccc23)NC(=O)[C@H](Cc2ccccc2)NC(=O)[C@H](Cc2ccccc2)NC(=O)[C@H](CC(N)=O)NC(=O)[C@H](CCCCN)NC1=O [somatostatin]
ΔIRI, mean incremental change of IRI from basal ([1]; Study A, 0.3 μg peptide/100 gm body weight rat): 73.8 ± 18.5 μU/ml
ΔIRI, mean incremental change of IRI from basal ([1]; Study A, 1.0 μg peptide/100 gm body weight rat): 43.0 ± 22.6 μU/ml
ΔIRI, mean incremental change of IRI from basal ([1]; Study A, 3.0 μg peptide/100 gm body weight rat): 40.0 ± 6.6 μU/ml
ΔIRI, mean incremental change of IRI from basal ([1]; Study A, 30.0 μg peptide/100 gm body weight rat): 23.2 ± 12.5 μU/ml
ΔIRI, mean incremental change of IRI from basal ([1]; Study B, 0.03 μg peptide/100 gm body weight rat): 88.3 ± 9.1 μU/ml
ΔIRI, mean incremental change of IRI from basal ([1]; Study B, 0.3 μg peptide/100 gm body weight rat): 76.8 ± 5.2 μU/ml
ΔIRI, mean incremental change of IRI from basal ([1]; Study B, 3.0 μg peptide/100 gm body weight rat): 32.2 ± 3.5 μU/ml
ΔIRI, mean incremental change of IRI from basal ([1]; Study B, 30.0 μg peptide/100 gm body weight rat): 35.5 ± 7.8 μU/ml
ΔIRI, mean incremental change of IRI from basal ([1]; Study C, 10.0 μg peptide/100 gm body weight rat): 52.8 ± 9.3 μU/ml
ΔIRI, mean incremental change of IRI from basal ([1]; Study C, 100.0 μg peptide/100 gm body weight rat): 25.5 ± 8.1 μU/ml
suppression of IRI, comparison of effective dose ([1]; arginine stimulated, summary of Table I): suppresses IRI at a lower dose than does the peptide of formula I in which X is (CH2)2
IRI/ml, level observed at 30 min ([2]; Study A, 10 μg peptide/100 gm rat infused for 30 min with glucose): 27.2 ± 4.7 μU/ml
IRI/ml, level observed at 30 min ([2]; Study A, 100 μg peptide/100 gm rat infused for 30 min with glucose): 12.3 ± 3.9 μU/ml
IRI/ml, level observed at 30 min ([2]; Study B, 10 μg peptide/100 gm rat infused for 30 min with glucose): 40.3 ± 7.7 μU/ml
IRI/ml, level observed at 30 min ([2]; Study B, 30 μg peptide/100 gm rat infused for 30 min with glucose): 17.0 ± 7.5 μU/ml
IRI/ml, level observed at 30 min ([2]; Study B, 100 μg peptide/100 gm rat infused for 30 min with glucose): 6.2 ± 1.9 μU/ml
relative potency in suppressing IRI secretion ([2]; glucose stimulated, summary of Table III): significantly more potent than the peptide of formula I in which X is (CH2)2
ΔIRG, mean incremental change of plasma IRG from level at 0 min to level at 30 min ([3]; Study A, 0.3 μg peptide/100 gm rat infused for 30 min with arginine): 157.2 ± 35.9 pg/mL
ΔIRG, mean incremental change of plasma IRG from level at 0 min to level at 30 min ([3]; Study A, 1.0 μg peptide/100 gm rat infused for 30 min with arginine): 72.7 ± 19.0 pg/mL
ΔIRG, mean incremental change of plasma IRG from level at 0 min to level at 30 min ([3]; Study A, 3.0 μg peptide/100 gm rat infused for 30 min with arginine): 102.5 ± 25.8 pg/mL
ΔIRG, mean incremental change of plasma IRG from level at 0 min to level at 30 min ([3]; Study A, 30.0 μg peptide/100 gm rat infused for 30 min with arginine): 90.2 ± 38.4 pg/mL
ΔIRG, mean incremental change of plasma IRG from level at 0 min to level at 30 min ([3]; Study B, 0.03 μg peptide/100 gm rat infused for 30 min with arginine): 211.0 ± 23.1 pg/mL
ΔIRG, mean incremental change of plasma IRG from level at 0 min to level at 30 min ([3]; Study B, 0.3 μg peptide/100 gm rat infused for 30 min with arginine): 149.2 ± 29.9 pg/mL
ΔIRG, mean incremental change of plasma IRG from level at 0 min to level at 30 min ([3]; Study B, 3.0 μg peptide/100 gm rat infused for 30 min with arginine): 69.3 ± 22.2 pg/mL
ΔIRG, mean incremental change of plasma IRG from level at 0 min to level at 30 min ([3]; Study B, 30.0 μg peptide/100 gm rat infused for 30 min with arginine): 69.7 ± 8.4 pg/mL
suppression of IRG secretion, comparison ([3]; arginine stimulated, summary of Table II): suppresses the IRG secretion about equally
